Test results from ChEMBL document CHEMBL3046607, “Synthesis and Herbicidal Activity of New 1-Alkyl-3-aryloxypyrazole-4-carboxamide Derivatives” (J Pestic Sci, 2004).
Calls of active or inactive are those of the source. The rule behind the calls is not given here.

Assays:
[1] = test system: Echinochloa oryzicola; assay: Post-emergence herbicidal activity against Echinochloa oryzicola assessed as bleaching of stem/leaf parts; assay type: functional, organism-based
[2] = test system: Schoenoplectiella juncoides; assay: Post-emergence herbicidal activity against Schoenoplectiella juncoides assessed as bleaching of stem/leaf parts; assay type: functional, organism-based; also: test concentration or dose not given here
[3] = test system: Cyperus difformis; assay: Post-emergence herbicidal activity against Cyperus difformis assessed as bleaching of stem/leaf parts; assay type: functional, organism-based; also: test concentration or dose not given here
[4] = test system: Pontederia vaginalis; assay: Post-emergence herbicidal activity against Monochoria vaginalis assessed as bleaching of stem/leaf parts; assay type: functional, organism-based
[5] = test system: Pontederia vaginalis; assay: Pre-emergence herbicidal activity against Monochoria vaginalis assessed as bleaching of stem/leaf parts; assay type: functional, organism-based
[6] = test system: Rotala indica; assay: Pre-emergence herbicidal activity against Rotala indica assessed as bleaching of stem/leaf parts; assay type: functional, organism-based
[7] = test system: Lindernia procumbens; assay: Pre-emergence herbicidal activity against Lindernia procumbens at 100 g a.i/ha measured after 14 days; assay type: functional, organism-based
[8] = test system: Schoenoplectiella juncoides; assay: Pre-emergence herbicidal activity against Schoenoplectiella juncoides at 100 g a.i/ha measured after 14 days; assay type: functional, organism-based
[9] = test system: Lindernia procumbens; assay: Pre-emergence herbicidal activity against Lindernia procumbens assessed as bleaching of stem/leaf parts; assay type: functional, organism-based
[10] = test system: Cyperus difformis; assay: Pre-emergence herbicidal activity against Cyperus difformis assessed as bleaching of stem/leaf parts; assay type: functional, organism-based
[11] = test system: Elatine triandra; assay: Pre-emergence herbicidal activity against Elatine triandra at 100 g a.i/ha measured after 14 days; assay type: functional, organism-based
[12] = test system: Rotala indica; assay: Post-emergence herbicidal activity against Rotala indica assessed as bleaching of stem/leaf parts; assay type: functional, organism-based
[13] = test system: Echinochloa oryzicola; assay: Pre-emergence herbicidal activity against Echinochloa oryzicola at 100 g a.i/ha measured after 14 days; assay type: functional, organism-based
[14] = test system: Ammannia multiflora; assay: Pre-emergence herbicidal activity against Ammannia multiflora at 100 g a.i/ha measured after 14 days; assay type: functional, organism-based
[15] = test system: Cyperus difformis; assay: Pre-emergence herbicidal activity against Cyperus difformis at 100 g a.i/ha measured after 14 days; assay type: functional, organism-based
[16] = test system: Pontederia vaginalis; assay: Pre-emergence herbicidal activity against Monochoria vaginalis at 100 g a.i/ha measured after 14 days; assay type: functional, organism-based
[17] = test system: Elatine triandra; assay: Post-emergence herbicidal activity against Elatine triandra assessed as bleaching of stem/leaf parts; assay type: functional, organism-based; also: test concentration or dose not given here
[18] = test system: Oryza sativa; assay: Phytotoxicity against Oryza sativa cv. Koshihikari (rice) at 100 g a.i/ha measured after 14 days; assay type: organism-based; details: in vivo, 336 h
[19] = test system: Echinochloa oryzicola; assay: Pre-emergence herbicidal activity against Echinochloa oryzicola assessed as bleaching of stem/leaf parts; assay type: functional, organism-based
[20] = test system: Rotala indica; assay: Pre-emergence herbicidal activity against Rotala indica at 100 g a.i/ha measured after 14 days; assay type: functional, organism-based
[21] = test system: Ammannia multiflora; assay: Post-emergence herbicidal activity against Ammannia multiflora assessed as bleaching of stem/leaf parts; assay type: functional, organism-based
[22] = test system: Elatine triandra; assay: Pre-emergence herbicidal activity against Elatine triandra assessed as bleaching of stem/leaf parts; assay type: functional, organism-based
[23] = test system: Ammannia multiflora; assay: Pre-emergence herbicidal activity against Ammannia multiflora assessed as bleaching of stem/leaf parts; assay type: functional, organism-based
[24] = test system: Schoenoplectiella juncoides; assay: Pre-emergence herbicidal activity against Schoenoplectiella juncoides assessed as bleaching of stem/leaf parts; assay type: functional, organism-based
[25] = test system: Lindernia procumbens; assay: Post-emergence herbicidal activity against Lindernia procumbens assessed as bleaching of stem/leaf parts; assay type: functional, organism-based; also: test concentration or dose not given here
[26] = test system: Pontederia vaginalis; assay: Pre-emergence herbicidal activity against Monochoria vaginalis at 500 g a.i/ha measured after 14 days; assay type: functional, organism-based
[27] = test system: Ammannia multiflora; assay: Pre-emergence herbicidal activity against Ammannia multiflora at 500 g a.i/ha measured after 14 days; assay type: functional, organism-based
[28] = test system: Elatine triandra; assay: Pre-emergence herbicidal activity against Elatine triandra at 500 g a.i/ha measured after 14 days; assay type: functional, organism-based
[29] = test system: Rotala indica; assay: Pre-emergence herbicidal activity against Rotala indica at 500 g a.i/ha measured after 14 days; assay type: functional, organism-based
[30] = test system: Oryza sativa; assay: Phytotoxicity against Oryza sativa cv. Koshihikari (rice) at 500 g a.i/ha measured after 14 days; assay type: organism-based; details: in vivo, 336 h
[31] = test system: Lindernia procumbens; assay: Pre-emergence herbicidal activity against Lindernia procumbens at 500 g a.i/ha measured after 14 days; assay type: functional, organism-based
[32] = test system: Cyperus difformis; assay: Pre-emergence herbicidal activity against Cyperus difformis at 500 g a.i/ha measured after 14 days; assay type: functional, organism-based
[33] = test system: Echinochloa oryzicola; assay: Pre-emergence herbicidal activity against Echinochloa oryzicola at 500 g a.i/ha measured after 14 days; assay type: functional, organism-based
[34] = test system: Schoenoplectiella juncoides; assay: Pre-emergence herbicidal activity against Schoenoplectiella juncoides at 500 g a.i/ha measured after 14 days; assay type: functional, organism-based
[35] = test system: Schoenoplectiella juncoides; assay: Pre-emergence herbicidal activity against Schoenoplectiella juncoides at 33 g a.i/ha measured after 14 days; assay type: functional, organism-based
[36] = test system: Rotala indica; assay: Pre-emergence herbicidal activity against Rotala indica at 33 g a.i/ha measured after 14 days; assay type: functional, organism-based
[37] = test system: Cyperus difformis; assay: Pre-emergence herbicidal activity against Cyperus difformis at 33 g a.i/ha measured after 14 days; assay type: functional, organism-based
[38] = test system: Lindernia procumbens; assay: Pre-emergence herbicidal activity against Lindernia procumbens at 33 g a.i/ha measured after 14 days; assay type: functional, organism-based
[39] = test system: Elatine triandra; assay: Pre-emergence herbicidal activity against Elatine triandra at 33 g a.i/ha measured after 14 days; assay type: functional, organism-based
[40] = test system: Pontederia vaginalis; assay: Pre-emergence herbicidal activity against Monochoria vaginalis at 33 g a.i/ha measured after 14 days; assay type: functional, organism-based
[41] = test system: Echinochloa oryzicola; assay: Pre-emergence herbicidal activity against Echinochloa oryzicola at 33 g a.i/ha measured after 14 days; assay type: functional, organism-based
[42] = test system: Ammannia multiflora; assay: Pre-emergence herbicidal activity against Ammannia multiflora at 33 g a.i/ha measured after 14 days; assay type: functional, organism-based
[43] = test system: Oryza sativa; assay: Phytotoxicity against Oryza sativa cv. Koshihikari (rice) at 33 g a.i/ha measured after 14 days; assay type: organism-based; details: in vivo, 336 h

| SMILES | Activity [1] | Activity [2] | Activity [3] | Activity [4] | Activity [5] | Activity [6] | Activity [7] | Activity [8] | Activity [9] | Activity [10] | Activity [11] | Activity [12] | Activity [13] | Activity [14] | Activity [16] | Activity [17] | Activity [18] | Activity [19] | Activity [20] | Activity [21] | other results |
| --- | --- | --- | --- | --- | --- | --- | --- | --- | --- | --- | --- | --- | --- | --- | --- | --- | --- | --- | --- | --- | --- |
| Cn1cc(C(=O)Nc2ccc(C(C)(C)C)cc2)c(Oc2cccc(C(F)(F)F)c2)n1 | Active | Active | Active | Active | Active | Active | inactive | inactive | Active | Active | inactive | Active | inactive | inactive | inactive | Active | Non-toxic | Active | inactive | Active | Activity [15]: inactive; Activity [22]: Active; Activity [23]: Active; Activity [24]: Active; Activity [25]: Active |
| CCONC(=O)c1cn(C)nc1Oc1cccc(C(F)(F)F)c1 | Active | Active | Active | Active | Active | Active | inactive | inactive | Active | Active | inactive | Active | Active | inactive | inactive | Active | Non-toxic | Active | inactive | Active | Activity [26]: Active; Activity [15]: inactive; Activity [27]: Active; Activity [28]: Active; Activity [29]: Active; Activity [30]: Toxic; Activity [31]: Active; Activity [22]: Active; Activity [32]: Active; Activity [33]: Active; Activity [23]: Active; Activity [34]: Active; Activity [24]: Active; Activity [25]: Active |
| Cn1cc(C(=O)Nc2ccccc2)c(OCc2cccc(C(F)(F)F)c2)n1 | Active | Active | Active | Active | Active | Active | Active | inactive | Active | Active | Active | Active | Active | Active | inactive | Active | Non-toxic | Active | Active | Active | Activity [15]: inactive; Activity [22]: Active; Activity [23]: Active; Activity [24]: Active; Activity [25]: Active |
| Cn1cc(C(=O)Nc2cccc(S(C)(=O)=O)c2)c(Oc2cccc(C(F)(F)F)c2)n1 | Active | Active | Active | Active | Active | Active | inactive | inactive | Active | Active | inactive | Active | inactive | inactive | inactive | Active | Non-toxic | Active | inactive | Active | Activity [15]: inactive; Activity [22]: Active; Activity [23]: Active; Activity [24]: Active; Activity [25]: Active |
| CCCONC(=O)c1cn(C)nc1Oc1cccc(C(F)(F)F)c1 | Active | Active | Active | Active | Active | Active | Active | Active | Active | Active | Active | Active | Active | Active | Active | Active | Non-toxic | Active | Active | Active | Activity [26]: Active; Activity [27]: Active; Activity [28]: Active; Activity [29]: Active; Activity [30]: Toxic; Activity [31]: Active; Activity [22]: Active; Activity [32]: Active; Activity [33]: Active; Activity [23]: Active; Activity [34]: Active; Activity [24]: Active; Activity [25]: Active |
| COc1ccc(NC(=O)c2cn(C)nc2Oc2cccc(C(F)(F)F)c2)cc1OC | Active | Active | Active | Active | Active | Active | inactive | inactive | Active | Active | inactive | Active | inactive | inactive | inactive | Active | Non-toxic | Active | inactive | Active | Activity [15]: inactive; Activity [22]: Active; Activity [23]: Active; Activity [24]: Active; Activity [25]: Active |
| CCONC(=O)c1cn(C)nc1OCc1cccc(C(F)(F)F)c1 | Active | Active | Active | Active | Active | Active | Active | Active | Active | Active | Active | Active | Active | Active | Active | Active | Non-toxic | Active | Active | Active | Activity [35]: Active; Activity [36]: Active; Activity [37]: Active; Activity [38]: Active; Activity [39]: Active; Activity [15]: Active; Activity [40]: Active; Activity [41]: Active; Activity [42]: Active; Activity [22]: Active; Activity [23]: Active; Activity [24]: Active; Activity [43]: Non-toxic; Activity [25]: Active |
